From PubChem BioAssay AID1963864 (Molecular Pharmacology Branch, DTP, NCI, 2024)

System: KRAS PDC multicell spheroid viability
Assay: Anticancer human tumor 521955-158-R6-J3-PDC patient-derived pancreatic carcinoma cell line growth inhibition [KRAS2]
Conditions: for viability, T/C: stronger effect = lower value
Summary of the method: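 KRAS-mutant tumor cells were grown as spheroids with HUVEC endothelial cells and human MSCs as stroma. Targeted agents were tested alone and with KRAS pathway inhibitors. Doses started at or near clinical Cmax, or 10 microM, descending half-log.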

[1] = curve of first compound, second compound 0.1 µM
[2] = curve of first compound, second compound 0.316 µM
[3] = curve of first compound, second compound 1 µM
[4] = curve of first compound, second compound 3.16 µM
[5] = curve of first compound, second compound 10 µM
[6] = second compound 0.1 µM, first compound 0.01 µM
[7] = second compound 0.1 µM, first compound 0.0316 µM
[8] = second compound 0.1 µM, first compound 0.1 µM
[9] = second compound 0.1 µM, first compound 0.316 µM
[10] = second compound 0.1 µM, first compound 1 µM
[11] = second compound 0.1 µM, first compound 3.16 µM
[12] = second compound 0.316 µM, first compound 0.01 µM
[13] = second compound 0.316 µM, first compound 0.0316 µM
[14] = second compound 0.316 µM, first compound 0.1 µM
[15] = second compound 0.316 µM, first compound 0.316 µM
[16] = second compound 0.316 µM, first compound 1 µM
[17] = second compound 0.316 µM, first compound 3.16 µM
[18] = second compound 1 µM, first compound 0.01 µM
[19] = second compound 1 µM, first compound 0.0316 µM
[20] = second compound 1 µM, first compound 0.1 µM
[21] = second compound 1 µM, first compound 0.316 µM
[22] = second compound 1 µM, first compound 1 µM
[23] = second compound 1 µM, first compound 3.16 µM
[24] = second compound 3.16 µM, first compound 0.01 µM
[25] = second compound 3.16 µM, first compound 0.0316 µM
[26] = second compound 3.16 µM, first compound 0.1 µM
[27] = second compound 3.16 µM, first compound 0.316 µM
[28] = second compound 3.16 µM, first compound 1 µM
[29] = second compound 3.16 µM, first compound 3.16 µM
[30] = second compound 10 µM, first compound 0.01 µM
[31] = second compound 10 µM, first compound 0.0316 µM
[32] = second compound 10 µM, first compound 0.1 µM
[33] = second compound 10 µM, first compound 0.316 µM
[34] = second compound 10 µM, first compound 1 µM
[35] = second compound 10 µM, first compound 3.16 µM
[36] = second compound 0.1 µM, first compound 10 µM
[37] = second compound 0.316 µM, first compound 10 µM
[38] = second compound 1 µM, first compound 10 µM
[39] = second compound 3.16 µM, first compound 10 µM
[40] = second compound 10 µM, first compound 10 µM
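Note: drug exposure lasted seven days.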
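Throughout, for viability, T/C: 100% = DMSO vehicle wells and lower means fewer viable cells.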

CC1COCCN1c1cc(-c2ccnn2C)c2ccnc(-c3ccn[nH]3)c2n1 (stereo unspecified) + COc1cc2nc(C)nc(NC(C)c3cc(N)cc(C(F)(F)F)c3)c2cc1OC1CCOC1
IC50 [1]: > 3.16 µM | IC50 [2]: > 3.16 µM | IC50 [3]: > 3.16 µM | IC50 [4]: > 3.16 µM | IC50 [5]: < 0.01 µM | viability, T/C [6]: 100% | viability, T/C [7]: 85.4% | viability, T/C [8]: 71.3% | viability, T/C [9]: 78.3% | viability, T/C [10]: 65.5% | viability, T/C [11]: 80.4% | viability, T/C [12]: 82.8% | viability, T/C [13]: 79.6% | viability, T/C [14]: 79.1% | viability, T/C [15]: 71% | viability, T/C [16]: 64.4% | viability, T/C [17]: 75.3% | viability, T/C [18]: 88.5% | viability, T/C [19]: 78.2% | viability, T/C [20]: 78.3% | viability, T/C [21]: 68.6% | viability, T/C [22]: 66.8% | viability, T/C [23]: 74.8% | viability, T/C [24]: 77.6% | viability, T/C [25]: 71.6% | viability, T/C [26]: 62.4% | viability, T/C [27]: 54.6% | viability, T/C [28]: 64.3% | viability, T/C [29]: 59.1% | viability, T/C [30]: 41.5% | viability, T/C [31]: 48.4% | viability, T/C [32]: 45.3% | viability, T/C [33]: 34.1% | viability, T/C [34]: 47.6% | viability, T/C [35]: 43.4%

CC(=O)OC12COC1CC(O)C1(C)C(=O)C(O)C3=C(C)C(OC(=O)C(O)C(NC(=O)OC(C)(C)C)c4ccccc4)CC(O)(C(OC(=O)c4ccccc4)C21)C3(C)C (stereo unspecified) + CC1OCC2(CCN(c3cnc(Sc4ccnc(N)c4Cl)c(N)n3)CC2)C1N
IC50 [1]: > 3.16 µM | IC50 [2]: > 3.16 µM | IC50 [3]: > 3.16 µM | IC50 [4]: > 3.16 µM | IC50 [5]: > 3.16 µM | viability, T/C [6]: 82.9% | viability, T/C [7]: 65.4% | viability, T/C [8]: 74.1% | viability, T/C [9]: 76.1% | viability, T/C [10]: 95.5% | viability, T/C [11]: 114% | viability, T/C [12]: 83% | viability, T/C [13]: 84.2% | viability, T/C [14]: 72.5% | viability, T/C [15]: 74.9% | viability, T/C [16]: 87.8% | viability, T/C [17]: 108% | viability, T/C [18]: 79.8% | viability, T/C [19]: 83.4% | viability, T/C [20]: 69.7% | viability, T/C [21]: 78.6% | viability, T/C [22]: 96.7% | viability, T/C [23]: 114% | viability, T/C [24]: 88.7% | viability, T/C [25]: 86.6% | viability, T/C [26]: 87.3% | viability, T/C [27]: 94.4% | viability, T/C [28]: 106% | viability, T/C [29]: 109% | viability, T/C [30]: 99.7% | viability, T/C [31]: 88.9% | viability, T/C [32]: 95% | viability, T/C [33]: 99% | viability, T/C [34]: 96.1% | viability, T/C [35]: 118%

CC1(C)CCC(CN2CCN(c3ccc(C(=O)NS(=O)(=O)c4ccc(NCC5CCOCC5)c([N+](=O)[O-])c4)c(Oc4cnc5[nH]ccc5c4)c3)CC2)=C(c2ccc(Cl)cc2)C1
viability, T/C (compound 0.0316 µM): 96.5% [middle of 5 runs] | viability, T/C (compound 0.1 µM): 96.3% [middle of 5 runs] | viability, T/C (compound 0.316 µM): 90.6% [middle of 5 runs] | viability, T/C (compound 1 µM): 97.9% [middle of 5 runs]

CC(=O)Nc1cccc(-n2c(=O)n(C3CC3)c(=O)c3c(Nc4ccc(I)cc4F)n(C)c(=O)c(C)c32)c1 + CC1OCC2(CCN(c3cnc(Sc4ccnc(N)c4Cl)c(N)n3)CC2)C1N
IC50 [1]: 0.0189 µM | IC50 [2]: 0.0125 µM | IC50 [3]: 0.00543 µM | IC50 [4]: 0.00244 µM | IC50 [5]: 0.00224 µM | viability, T/C (second compound 0.1 µM, first compound 0.0001 µM): 87.8% | viability, T/C (second compound 0.1 µM, first compound 0.000316 µM): 82.8% | viability, T/C (second compound 0.1 µM, first compound 0.001 µM): 91.2% | viability, T/C (second compound 0.1 µM, first compound 0.00316 µM): 83.5% | viability, T/C [6]: 56.7% | viability, T/C [7]: 44.6% | viability, T/C (second compound 0.316 µM, first compound 0.0001 µM): 83.2% | viability, T/C (second compound 0.316 µM, first compound 0.000316 µM): 85.7% | viability, T/C (second compound 0.316 µM, first compound 0.001 µM): 77.2% | viability, T/C (second compound 0.316 µM, first compound 0.00316 µM): 65% | viability, T/C [12]: 55.7% | viability, T/C [13]: 33.7% | viability, T/C (second compound 1 µM, first compound 0.0001 µM): 103% | viability, T/C (second compound 1 µM, first compound 0.000316 µM): 87.6% | viability, T/C (second compound 1 µM, first compound 0.001 µM): 80.1% | viability, T/C (second compound 1 µM, first compound 0.00316 µM): 55.3% | viability, T/C [18]: 41.8% | viability, T/C [19]: 27.8% | viability, T/C (second compound 3.16 µM, first compound 0.0001 µM): 105% | viability, T/C (second compound 3.16 µM, first compound 0.000316 µM): 90.7% | viability, T/C (second compound 3.16 µM, first compound 0.001 µM): 62.8% | viability, T/C (second compound 3.16 µM, first compound 0.00316 µM): 47% | viability, T/C [24]: 34.9% | viability, T/C [25]: 28.6% | viability, T/C (second compound 10 µM, first compound 0.0001 µM): 85.6% | viability, T/C (second compound 10 µM, first compound 0.000316 µM): 70.9% | viability, T/C (second compound 10 µM, first compound 0.001 µM): 67.4% | viability, T/C (second compound 10 µM, first compound 0.00316 µM): 42.3% | viability, T/C [30]: 30.3% | viability, T/C [31]: 23%

CCN1CCN(Cc2ccc(Nc3ncc(F)c(-c4cc(F)c5nc(C)n(C(C)C)c5c4)n3)nc2)CC1
viability, T/C (compound 0.00316 µM): 101% [middle of 5 runs] | viability, T/C (compound 0.01 µM): 86.9% [middle of 5 runs] | viability, T/C (compound 0.0316 µM): 85.5% [middle of 5 runs] | viability, T/C (compound 0.1 µM): 81.5% [middle of 5 runs] | viability, T/C (compound 0.316 µM): 88.2% [middle of 5 runs] | viability, T/C (compound 1 µM): 95.5% [middle of 5 runs] | IC50 (curve of compound): > 1 µM

O=C(c1cc(Cc2n[nH]c(=O)c3ccccc23)ccc1F)N1CCN(C(=O)C2CC2)CC1 + CC1OCC2(CCN(c3cnc(Sc4ccnc(N)c4Cl)c(N)n3)CC2)C1N
IC50 [1]: > 10 µM | IC50 [2]: > 10 µM | IC50 [3]: > 10 µM | IC50 [4]: > 10 µM | IC50 [5]: > 10 µM | viability, T/C [7]: 83% | viability, T/C [8]: 79.6% | viability, T/C [9]: 75.8% | viability, T/C [10]: 69.6% | viability, T/C [11]: 73.5% | viability, T/C [36]: 84.1% | viability, T/C [13]: 83.8% | viability, T/C [14]: 85.8% | viability, T/C [15]: 84.1% | viability, T/C [16]: 74.8% | viability, T/C [17]: 66.2% | viability, T/C [37]: 69.5% | viability, T/C [19]: 75.8% | viability, T/C [20]: 78.2% | viability, T/C [21]: 81% | viability, T/C [22]: 76% | viability, T/C [23]: 71.9% | viability, T/C [38]: 75.9% | viability, T/C [25]: 96% | viability, T/C [26]: 98.6% | viability, T/C [27]: 88% | viability, T/C [28]: 75.9% | viability, T/C [29]: 78.3% | viability, T/C [39]: 72.1% | viability, T/C [31]: 85.3% | viability, T/C [32]: 85.6% | viability, T/C [33]: 61.5% | viability, T/C [34]: 70.3% | viability, T/C [35]: 70.8% | viability, T/C [40]: 63.9%

Cn1nccc1Nc1nccc(-c2cc3c(s2)C(C)(C)N(CCN2CCOCC2)C3=O)n1 + COc1cc2nc(C)nc(NC(C)c3cc(N)cc(C(F)(F)F)c3)c2cc1OC1CCOC1
IC50 [1]: > 10 µM | IC50 [2]: > 10 µM | IC50 [3]: > 10 µM | IC50 [4]: 6.16 µM | IC50 [5]: < 0.0316 µM | viability, T/C [7]: 88.5% | viability, T/C [8]: 111% | viability, T/C [9]: 96.4% | viability, T/C [10]: 85.5% | viability, T/C [11]: 79.6% | viability, T/C [36]: 64.8% | viability, T/C [13]: 86.5% | viability, T/C [14]: 111% | viability, T/C [15]: 103% | viability, T/C [16]: 81.9% | viability, T/C [17]: 71.2% | viability, T/C [37]: 57.7% | viability, T/C [19]: 79.1% | viability, T/C [20]: 111% | viability, T/C [21]: 99.6% | viability, T/C [22]: 82.2% | viability, T/C [23]: 65.4% | viability, T/C [38]: 56.1% | viability, T/C [25]: 83.6% | viability, T/C [26]: 110% | viability, T/C [27]: 94.8% | viability, T/C [28]: 73.7% | viability, T/C [29]: 55.9% | viability, T/C [39]: 45.8% | viability, T/C [31]: 26.8% | viability, T/C [32]: 30% | viability, T/C [33]: 16% | viability, T/C [34]: 14.1% | viability, T/C [35]: 6.82% | viability, T/C [40]: 3.23%
